{"source": "patent US11028079B2", "about": "(ConverGene LLC, priority 2015, dated 2021)"}
{"molecular_target": "T1, BRD4 bromodomains (Homo sapiens, UniProt O60885)", "T1 construct": "fused on or other part: T7 phage capsid protein (phage-display fusion; the phage DNA is read out by qPCR)", "assay": "BROMOscan bromodomain competition binding assay (DiscoveRx)", "details": "Kd from 11 compound concentrations ranging from 0 to 10 μM, read-out: BROMOscan Relative Activity", "summary_of_the_method": "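Compounds in 0.1% DMSO/0.9% MEG competed with a solid-phase acetylated peptide for T7 phage-fused BRD4 bromodomains, with the retained bromodomain measured by qPCR.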", "units": {"Kd": "nM"}}
{"smiles": "Cc1noc(C)c1-c1ccc2nc(C(=O)NCc3ccncc3)nc(NCc3cccc(Cl)c3)c2c1", "note": "[Example 171, 4-((3-chlorobenzyl)amino)-6-(3,5-dimethylisoxazol-4-yl)-N-(pyridin-4-ylmethyl)quinazoline-2-carboxamide]", "Kd": "< 500"}
{"smiles": "Cc1noc(C)c1-c1ccc2nc(C(=O)NC3CCN(C)CC3)nc(NCc3cccc(Cl)c3)c2c1", "note": "[Example 172, 4-((3-chlorobenzyl)amino)-6-(3,5-dimethylisoxazol-4-yl)-N-(1-methylpiperidin-4-yl)quinazoline-2-carboxamide]", "Kd": "< 500"}
{"smiles": "Cc1noc(C)c1-c1ccc2nc(N3CCN(CCN(C)C)CC3)nc(N[C@H](CO)c3ccccc3)c2c1", "note": "[Example 173, (S)-2-((2-(4-(2-(dimethylamino)ethyl)piperazin-1-yl)-6-(3,5-dimethylisoxazol-4-yl)quinazolin-4-yl)amino)-2-phenylethanol]", "Kd": "< 500"}
{"smiles": "Cc1noc(C)c1-c1ccc2nc(N3CCN(CCN(C)C)CC3)nc(N3CCCC3c3ccccc3)c2c1", "note": "(centres unmarked) [Example 174, 2-(4-(6-(3,5-dimethylisoxazol-4-yl)-4-(2-phenylpyrrolidin-1-yl)quinazolin-2-yl)piperazin-1-yl)-N,N-dimethylethanamine]", "Kd": "< 500"}
{"smiles": "Cc1noc(C)c1-c1ccc2nc(N3CCN(CCN(C)C)CC3)nc(N3CCCCC3c3ccccc3)c2c1", "note": "(centres unmarked) [Example 175, 2-(4-(6-(3,5-dimethylisoxazol-4-yl)-4-(2-phenylpiperidin-1-yl)quinazolin-2-yl)piperazin-1-yl)-N,N-dimethylethanamine]", "Kd": "< 500"}
{"smiles": "Cc1noc(C)c1-c1ccc2nc(C(=O)NCc3ncc[nH]3)nc(NCc3cccc(Cl)c3)c2c1", "note": "[Example 177, N-((1H-imidazol-2-yl)methyl)-4-((3-chlorobenzyl)amino)-6-(3,5-dimethylisoxazol-4-yl)quinazoline-2-carboxamide]", "Kd": "< 500"}
{"smiles": "Cc1noc(C)c1-c1ccc2nc(NCc3ncc[nH]3)nc(NCc3cccc(Cl)c3)c2c1", "note": "[Example 178, N2-((1H-imidazol-2-yl)methyl)-N4-(3-chlorobenzyl)-6-(3,5-dimethylisoxazol-4-yl)quinazoline-2,4-diamine]", "Kd": "< 500"}
{"smiles": "Cc1noc(C)c1-c1ccc2nc(N3CCN(CCN(C)C)CC3)nc(N3CCC3c3ccccc3)c2c1", "note": "(centres unmarked) [Example 179, 2-(4-(6-(3,5-dimethylisoxazol-4-yl)-4-(2-phenylazetidin-1-yl)quinazolin-2-yl)piperazin-1-yl)-N,N-dimethylethanamine]", "Kd": "< 500"}
{"smiles": "Cc1noc(C)c1-c1ccc2nc(N3CCN(S(C)(=O)=O)CC3)nc(NC3(c4cccc(Cl)c4)CC3)c2c1", "note": "[Example 180, N-(1-(3-chlorophenyl)cyclopropyl)-6-(3,5-dimethylisoxazol-4-yl)-2-(4-(methylsulfonyl)piperazin-1-yl)quinazolin-4-amine]", "Kd": "< 500"}
{"smiles": "CNC(=O)Cn1cc(-c2nc(NC3(c4cccc(Cl)c4)CC3)c3cc(-c4c(C)noc4C)ccc3n2)cn1", "note": "[Example 181, 2-(4-(4-((1-(3-chlorophenyl)cyclopropyl)amino)-6-(3,5-dimethylisoxazol-4-yl)quinazolin-2-yl)-1H-pyrazol-1-yl)-N-methylacetamide]", "Kd": "< 500"}
{"smiles": "Cc1noc(C)c1-c1ccc2nc(-c3cnn(CC(C)(C)O)c3)nc(NC3(c4cccc(Cl)c4)CC3)c2c1", "note": "[Example 182, 1-(4-(4-((1-(3-chlorophenyl)cyclopropyl)amino)-6-(3,5-dimethylisoxazol-4-yl)quinazolin-2-yl)-1H-pyrazol-1-yl)-2-methylpropan-2-ol]", "Kd": "< 500"}
{"smiles": "Cc1noc(C)c1-c1ccc2nc(C(=O)NCc3cncn3C)nc(NCc3cccc(Cl)c3)c2c1", "note": "[Example 183, 4-((3-chlorobenzyl)amino)-6-(3,5-dimethylisoxazol-4-yl)-N-((1-methyl-1H-imidazol-5-yl)methyl)quinazoline-2-carboxamide]", "Kd": "< 500"}
{"smiles": "CC(=O)N1CCN(c2nc(NCc3cccc(Cl)c3)c3cc(-c4c(C)noc4C)ccc3n2)CC1", "note": "[Example 184, 1-(4-(4-((3-chlorobenzyl)amino)-6-(3,5-dimethylisoxazol-4-yl)quinazolin-2-yl)piperazin-1-yl)ethanone]", "Kd": "< 500"}
{"smiles": "CC(=O)N1CCN(c2nc(NC3(c4cccc(Cl)c4)CC3)c3cc(-c4c(C)noc4C)ccc3n2)CC1", "note": "[Example 185, 1-(4-(4-((1-(3-chlorophenyl)cyclopropyl)amino)-6-(3,5-dimethylisoxazol-4-yl)quinazolin-2-yl)piperazin-1-yl)ethanone]", "Kd": "< 500"}
{"smiles": "Cc1noc(C)c1-c1ccc2nc(C(=O)NCc3cnn(C)c3)nc(NCc3cccc(Cl)c3)c2c1", "note": "[Example 186, 4-((3-chlorobenzyl)amino)-6-(3,5-dimethylisoxazol-4-yl)-N-((1-methyl-1H-pyrazol-4-yl)methyl)quinazoline-2-carboxamide]", "Kd": "< 500"}
{"smiles": "Cc1ccncc1CNC(=O)c1nc(NCc2cccc(Cl)c2)c2cc(-c3c(C)noc3C)ccc2n1", "note": "[Example 187, 4-((3-chlorobenzyl)amino)-6-(3,5-dimethylisoxazol-4-yl)-N-((4-methylpyridin-3-yl)methyl)quinazoline-2-carboxamide]", "Kd": "< 500"}
{"smiles": "Cc1noc(C)c1-c1ccc2nc(C(=O)NCc3cc(Cl)ccn3)nc(NCc3cccc(Cl)c3)c2c1", "note": "[Example 188, 4-((3-chlorobenzyl)amino)-N-((4-chloropyridin-2-yl)methyl)-6-(3,5-dimethylisoxazol-4-yl)quinazoline-2-carboxamide]", "Kd": "< 500"}
{"smiles": "Cc1noc(C)c1-c1ccc2nc(C(=O)NCc3cccnc3)nc(NCc3cccc(Cl)c3)c2c1", "note": "[Example 189, 4-((3-chlorobenzyl)amino)-6-(3,5-dimethylisoxazol-4-yl)-N-(pyridin-3-ylmethyl)quinazoline-2-carboxamide]", "Kd": "< 500"}
{"smiles": "Cc1noc(C)c1-c1ccc2nc(C(=O)NCc3cnn(C)c3C)nc(NCc3cccc(Cl)c3)c2c1", "note": "[Example 190, 4-((3-chlorobenzyl)amino)-N-((1,5-dimethyl-1H-pyrazol-4-yl)methyl)-6-(3,5-dimethylisoxazol-4-yl)quinazoline-2-carboxamide]", "Kd": "< 500"}
{"smiles": "Cc1noc(C)c1-c1ccc2nc(C(=O)NCc3cncc(Cl)c3)nc(NCc3cccc(Cl)c3)c2c1", "note": "[Example 191, 4-((3-chlorobenzyl)amino)-N-((5-chloropyridin-3-yl)methyl)-6-(3,5-dimethylisoxazol-4-yl)quinazoline-2-carboxamide]", "Kd": "< 500"}
{"smiles": "Cc1noc(C)c1-c1ccc2nc(C(=O)NCc3cncc(F)c3)nc(NCc3cccc(Cl)c3)c2c1", "note": "[Example 192, 4-((3-chlorobenzyl)amino)-6-(3,5-dimethylisoxazol-4-yl)-N-((5-fluoropyridin-3-yl)methyl)quinazoline-2-carboxamide]", "Kd": "< 500"}
{"smiles": "Cc1cncc(CNC(=O)c2nc(NCc3cccc(Cl)c3)c3cc(-c4c(C)noc4C)ccc3n2)c1", "note": "[Example 193, 4-((3-chlorobenzyl)amino)-6-(3,5-dimethylisoxazol-4-yl)-N-((5-methylpyridin-3-yl)methyl)quinazoline-2-carboxamide]", "Kd": "< 500"}
{"smiles": "Cc1nn(C)c(C)c1CNC(=O)c1nc(NCc2cccc(Cl)c2)c2cc(-c3c(C)noc3C)ccc2n1", "note": "[Example 194, 4-((3-chlorobenzyl)amino)-6-(3,5-dimethylisoxazol-4-yl)-N-((1,3,5-trimethyl-1H-pyrazol-4-yl)methyl)quinazoline-2-carboxamide]", "Kd": "< 500"}
{"smiles": "CC(=O)N1CCN(c2nc(NCc3cncc(Cl)c3)c3cc(-c4c(C)noc4C)ccc3n2)CC1", "note": "[Example 195, 1-(4-(4-(((5-chloropyridin-3-yl)methyl)amino)-6-(3,5-dimethylisoxazol-4-yl)quinazolin-2-yl)piperazin-1-yl)ethanone]", "Kd": "< 500"}
{"smiles": "Cc1nc(CNC(=O)c2nc(NCc3cccc(Cl)c3)c3cc(-c4c(C)noc4C)ccc3n2)cs1", "note": "[Example 196, 4-((3-chlorobenzyl)amino)-6-(3,5-dimethylisoxazol-4-yl)-N-((2-methylthiazol-4-yl)methyl)quinazoline-2-carboxamide]", "Kd": "< 500"}
{"smiles": "Cc1ccc(CNC(=O)c2nc(NCc3cccc(Cl)c3)c3cc(-c4c(C)noc4C)ccc3n2)cn1", "note": "[Example 197, 4-((3-chlorobenzyl)amino)-6-(3,5-dimethylisoxazol-4-yl)-N-((6-methylpyridin-3-yl)methyl)quinazoline-2-carboxamide]", "Kd": "< 500"}
{"smiles": "Cc1noc(C)c1-c1ccc2nc(C(=O)NC3CN(C)C3)nc(NCc3cccc(Cl)c3)c2c1", "note": "[Example 198, 4-((3-chlorobenzyl)amino)-6-(3,5-dimethylisoxazol-4-yl)-N-(1-methylazetidin-3-yl)quinazoline-2-carboxamide]", "Kd": "< 500"}
{"smiles": "CC(=O)N1CCC(NC(=O)c2nc(NCc3cccc(Cl)c3)c3cc(-c4c(C)noc4C)ccc3n2)CC1", "note": "[Example 199, N-(1-acetylpiperidin-4-yl)-4-((3-chlorobenzyl)amino)-6-(3,5-dimethylisoxazol-4-yl)quinazoline-2-carboxamide]", "Kd": "< 500"}
{"smiles": "Cc1noc(C)c1-c1ccc2nc(C(=O)NCC3CN(C)C3)nc(NCc3cccc(Cl)c3)c2c1", "note": "[Example 200, 4-((3-chlorobenzyl)amino)-6-(3,5-dimethylisoxazol-4-yl)-N-((1-methylazetidin-3-yl)methyl)quinazoline-2-carboxamide]", "Kd": "< 500"}
{"smiles": "Cc1noc(C)c1-c1ccc2nc(C(=O)NC3CCN(S(C)(=O)=O)CC3)nc(NCc3cccc(Cl)c3)c2c1", "note": "[Example 201, 4-((3-chlorobenzyl)amino)-6-(3,5-dimethylisoxazol-4-yl)-N-(1-(methylsulfonyl)piperidin-4-yl)quinazoline-2-carboxamide]", "Kd": "< 500"}
{"smiles": "Cc1noc(C)c1-c1ccc2nc(C(=O)NCc3ccnc(Cl)c3)nc(NCc3cccc(Cl)c3)c2c1", "note": "[Example 202, 4-((3-chlorobenzyl)amino)-N-((2-chloropyridin-4-yl)methyl)-6-(3,5-dimethylisoxazol-4-yl)quinazoline-2-carboxamide]", "Kd": "< 500"}
{"smiles": "Cc1noc(C)c1-c1ccc2nc(C(=O)NCc3ccc(Cl)nc3)nc(NCc3cccc(Cl)c3)c2c1", "note": "[Example 203, 4-((3-chlorobenzyl)amino)-N-((6-chloropyridin-3-yl)methyl)-6-(3,5-dimethylisoxazol-4-yl)quinazoline-2-carboxamide]", "Kd": "< 500"}
